From patent publication US8962651B2, “Compounds for the treatment of hepatitis C” (Bristol-Myers Squibb Company, priority 2013, dated 2015)
Read-outs that look alike come from different tables or passages of the source.

Columns and labels:
[1] = extended dosing, combination with interferon and ribavirin; cited from earlier work
HCV = settings: cited from earlier work
[2] = tested on: genotype 1b (Con-1) HCV replicon; assay: HCV replicon luciferase assay; assay type: cell-based; settings: Hepatitis C virus, Huh-7, 72 h, 1b replicon, Huh-7 cells, Renilla luciferase, 3 days incubation
Procedure: The cell lines used to evaluate compounds consist of a human hepatocyte derived cell line (Huh-7) that constitutively expresses a genotype 1b (Con-1) HCV replicon or a genotype 1b (Con-1) HCV replicon with an asparagine replacing the cysteine at amino acid 316, or a genotype 2a (JFH-1) replicon, containing a Renilla luciferase reporter gene. These cells were maintained in Dulbecco's modified Eagle medium (DMEM) containing 10% FBS, 100 U/mL penicillin/streptomycin and 1.0 mg/mL G418.
After 3 days incubation at 37° C., cells were analyzed for Renilla Luciferase activity using the EnduRen substrate (Promega cat #E6485) according to the manufacturer's directions. Briefly, the EnduRen substrate was diluted in DMEM and then added to the plates to a final concentration of 7.5 μM. The plates were incubated for at least 1 h at 37° C. then read on a Viewlux Imager (PerkinElmer) using a luminescence program.

HCV NS5B = HCV NS5B (Hepatitis C virus genotype 1b (isolate Con1) (HCV), UniProt Q9WMX2); assay: HCV NS5B RdRp enzyme assay; assay type: biochemical, HCV genotype 1b (Con1)
Procedure: Each untagged protein was expressed with an 18 amino acid C-terminal truncation to enhance the solubility. The E. coli competent cell line BL21(DE3) was used for expression of the protein. […] The cultures were cooled to 20° C. and induced with 1 mM IPTG. Fresh ampicillin was added to a final concentration of 50 μg/mL and the cells were grown overnight at 20° C.
The lysis buffer consisted of 20 mM Tris-HCl, pH 7.4, 500 mM NaCl, 0.5% triton X-100, 1 mM DTT, 1 mM EDTA, 20% glycerol, 0.5 mg/mL lysozyme, 10 mM MgCl2, 15 ug/mL deoxyribonuclease I, and Complete TM protease inhibitor tablets (Roche). After addition of the lysis buffer, frozen cell pellets were resuspended using a tissue homogenizer. To reduce the viscosity of the sample, aliquots of the lysate were sonicated on ice using a microtip attached to a Branson sonicator. The sonicated lysate was centrifuged at 100,000×g for 30 minutes at 4° C. and filtered through a 0.2 μm filter unit (Corning).
The protein was purified using two sequential chromatography steps: Heparin sepharose CL-6B and polyU sepharose 4B. The chromatography buffers were identical to the lysis buffer but contained no lysozyme, deoxyribonuclease I, MgCl2 or protease inhibitor and the NaCl concentration of the buffer was adjusted according to the requirements for charging the protein onto the column. Each column was eluted with a NaCl gradient which varied in length from 5-50 column volumes depending on the column type. […] The enzyme was aliquoted and stored at −80° C.
An on-bead solid phase homogeneous assay was used in a 384-well format to assess NS5B inhibitors (WangY-K, Rigat K, Roberts S, and Gao M (2006) Anal Biochem, 359: 106-111). The biotinylated oligo dT12 primer was captured on streptavidin-coupled imaging beads (GE, RPNQ0261) by mixing primer and beads in 1× buffer and incubating at room temperature for three hours. Unbound primer was removed after centrifugation. The primer-bound beads were resuspended in 3× reaction mix (20 mM Hepes buffer, pH 7.5, dT primer coupled beads, poly A template, ^3H-UTP, and RNAse inhibitor (Promega N2515)). Compounds were serially diluted 1:3 in DMSO and aliquoted into assay plates. […]
Reactions were allowed to proceed for 24 hours at 30° C. and terminated by the addition of 50 mM EDTA (5 μL). After incubating for at least 15 minutes, plates were read on an Amersham LEADseeker multimodality imaging system.
IC50 values for compounds were determined using ten different [I]. IC50 values were calculated from the inhibition using the four-parameter logistic formula y=A+((B−A)/(1+((C/x)^D))), where A and B denote minimal and maximal % inhibition, respectively, C is the IC50, D is hill slope and x represents compound concentration.

[3] = 1b enzyme, 7 nM NS5B, 24 hours at 30° C., read-out: IC50

HCV NS5B, sequence (Q9WMX2 2420-2992): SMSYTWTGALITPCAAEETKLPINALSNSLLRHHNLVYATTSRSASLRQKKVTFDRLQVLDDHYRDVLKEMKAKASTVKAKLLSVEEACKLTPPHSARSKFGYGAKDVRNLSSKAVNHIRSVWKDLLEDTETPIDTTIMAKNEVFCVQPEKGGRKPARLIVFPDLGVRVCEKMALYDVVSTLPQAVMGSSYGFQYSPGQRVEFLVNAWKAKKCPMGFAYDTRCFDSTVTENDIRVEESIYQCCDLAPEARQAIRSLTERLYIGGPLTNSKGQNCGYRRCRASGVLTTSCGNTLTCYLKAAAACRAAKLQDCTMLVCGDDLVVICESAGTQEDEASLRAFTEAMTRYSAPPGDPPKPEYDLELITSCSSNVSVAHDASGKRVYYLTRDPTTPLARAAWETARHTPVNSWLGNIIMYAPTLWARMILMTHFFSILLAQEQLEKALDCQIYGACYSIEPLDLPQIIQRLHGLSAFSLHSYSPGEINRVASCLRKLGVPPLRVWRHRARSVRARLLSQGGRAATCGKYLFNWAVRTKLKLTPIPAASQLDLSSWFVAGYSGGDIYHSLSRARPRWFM

Row | Compound | EC50 [2] [nM] | IC50 (HCV NS5B; [3]) [nM] | other results
1 | CNC(=O)c1c(-c2ccc(F)cc2)oc2cc(N(CCO)S(C)(=O)=O)c(C3CC3)cc12 [HCV-796] |  |  | hepatic toxicity [1]: hepatic toxicity observed during extended dosing of the combination regimens; HCV RNA levels in patients (HCV; single agent, transient decrease then rebound during dosing): reduce HCV RNA levels in patients
2 | CNC(=O)c1c(-c2ccc(F)cc2)oc2nc(CCC(F)(F)F)c(-c3cccc(C(=O)NC(C)(C)c4nc(C)no4)c3)cc12 [Example 9, 2-(4-fluorophenyl)-N-methyl-5-(3-((2-(3-methyl-1,2,4-oxadiazol-5-yl)propan-2-yl)carbamoyl)phenyl)-6-(3,3,3-trifluoropropyl)furo[2,3-b]pyridine-3-carboxamide] | 2.11 | 2.87 | 
3 | alpha-interferon and ribavirin |  |  | sustained efficacy (HCV; combination therapy): 40 % of patients
4 | CNC(=O)c1c(-c2ccc(F)cc2)oc2nc(CCC(F)(F)F)c(-c3cccc(C(=O)NC4(c5ncon5)CCC4)c3)cc12 [Example 4, 5-(3-((1-(1,2,4-oxadiazol-3-yl)cyclobutyl)carbamoyl)phenyl)-2-(4-fluorophenyl)-N-methyl-6-(3,3,3-trifluoropropyl)furo[2,3-b]pyridine-3-carboxamide] | 2.41 | 2.05 | 
5 | [2H]C([2H])([2H])Oc1ncc(-c2cc3c(C(=O)NC)c(-c4ccc(F)cc4)oc3nc2NCC(F)(F)F)cc1C(=O)NC(C)(C)c1ncon1 [Example 27, 5-[2-(4-fluorophenyl)-3-(methylcarbamoyl)-6-[(2,2,2-trifluoroethyl)amino]furo[2,3-b]pyridin-5-yl]-2-(^2H3)methoxy-N-[2-(1,2,4-oxadiazol-3-yl)propan-2-yl]pyridine-3-carboxamide] | 4.32 |  | 
6 | [2H]C([2H])([2H])Oc1ncc(-c2cc3c(C(=O)NC)c(-c4ccc(F)cc4)oc3nc2CCC(F)(F)F)cc1C(=O)NC(c1ncon1)(C([2H])([2H])[2H])C([2H])([2H])[2H] [Example 17, 5-[2-(4-fluorophenyl)-3-(methylcarbamoyl)-6-(3,3,3-trifluoropropyl)furo[2,3-b]pyridin-5-yl]-2-(^2H3)methoxy-N-[2-(1,2,4-oxadiazol-3-yl)(^2H6)propan-2-yl]pyridine-3-carboxamide] |  |  | IC50 (HCV NS5B): 2.4 nM
7 | CNC(=O)c1c(-c2ccc(F)cc2)oc2nc(NCC(F)(F)F)c(-c3ccc(F)c(C(=O)NC(C)(C)c4ncon4)c3)cc12 [Example 13, 5-(3-((2-(1,2,4-oxadiazol-3-yl)propan-2-yl)carbamoyl)-4-fluorophenyl)-2-(4-fluorophenyl)-N-methyl-6-((2,2,2-trifluoroethyl)amino)furo[2,3-b]pyridine-3-carboxamide] | 5.76 | 3.42 | 
8 | CNC(=O)c1c(-c2ccc(F)cc2)oc2nc(NCC(F)(F)F)c(-c3cccc(C(=O)NC4(c5ncon5)CCC4)c3)cc12 [Example 5, 5-(3-((1-(1,2,4-oxadiazol-3-yl)cyclobutyl)carbamoyl)phenyl)-2-(4-fluorophenyl)-N-methyl-6-((2,2,2-trifluoroethyl)amino)furo[2,3-b]pyridine-3-carboxamide] | 4.96 |  | 
